Data taken from patent publication US20130071535A1, “FOOD AND FLAVORANT COMPOSITIONS COMPRISING RENEWABLY-BASED, BIODEGRADABLE 1,3-PROPANEDIOL” (DuPont Tate & Lyle Bio Products Company, LLC, priority 2006, published 2013).

How the values were obtained:
[1] = Viscosity of formulation; format: physicochemical; settings: cosmetic emulsion of Example 1 with other glycol instead of Bio-PDO
[2] = tested on: human skin; test: Second human skin patch test; format: in vivo
Text: (§1) Based on these studies PDO is not expected to be a skin irritant or sensitizer in humans.

[3] = tested on: human skin; test: Human skin patch test (first); format: in vivo; settings: approximately 100 subjects; 5, 25, and 50% PDO
Text: as §1

Row | viscosity of the cosmetic emulsion with the comparison glycol [1] [cps] | SMILES | clinically significant dermal irritation or sensitization reactions ([2]; 25, 50, and 75% PDO at pH 7, or 75% PDO at pH 4 and 9) | skin reactions indicative of irritation or sensitization [3] | patch test irritation and cumulative irritation for human skin ([2]; 25, 50, and 75% (pH 7))
1 | 9600 | CC(CO)CO [2-methyl-1,3-propanediol] | – | – | –
2 | – | OCCCO [Bio-PDO, 1,3-propanediol] | did not produce any clinically significant dermal irritation or sensitization reactions | did not cause any skin reactions indicative of irritation or sensitization | –
3 | 12600 | CC(O)CO (stereo not drawn) [propylene glycol] | – | – | patch test irritants and cumulative irritants

Row | SMILES | viscosity of the cosmetic emulsion with the comparison glycol [1] [cps] | clinically significant dermal irritation or sensitization reactions ([2]; 25, 50, and 75% PDO at pH 7, or 75% PDO at pH 4 and 9) | skin reactions indicative of irritation or sensitization [3] | patch test irritation and cumulative irritation for human skin ([2]; 25, 50, and 75% (pH 7))
4 | CC(O)CCO (stereo not drawn) [1,3-butylene glycol] | 6000 | – | – | –
